Test results: ChEMBL document CHEMBL5303761, “Data for DCP probe BI-3231” (2023); call rule not given here

What was measured:
[1] = target: T1, 5-hydroxytryptamine receptor 1A (Homo sapiens) (UniProt P08908); assay: 5HT1A/H Eurofins SafetyScreen44 (BI); conditions: Compound concentration 10.0 uM
T1 sequence (whole entry): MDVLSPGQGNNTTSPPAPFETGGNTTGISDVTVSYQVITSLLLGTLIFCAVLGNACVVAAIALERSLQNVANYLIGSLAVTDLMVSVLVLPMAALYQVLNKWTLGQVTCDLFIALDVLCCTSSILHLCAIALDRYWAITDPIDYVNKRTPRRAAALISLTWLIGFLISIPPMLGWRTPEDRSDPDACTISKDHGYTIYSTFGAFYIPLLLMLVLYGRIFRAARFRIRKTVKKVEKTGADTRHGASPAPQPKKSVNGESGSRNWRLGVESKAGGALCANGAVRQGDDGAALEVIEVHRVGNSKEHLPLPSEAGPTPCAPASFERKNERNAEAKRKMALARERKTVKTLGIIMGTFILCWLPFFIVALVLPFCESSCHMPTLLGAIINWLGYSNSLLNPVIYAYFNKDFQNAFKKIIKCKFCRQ

[2] = target: 5-hydroxytryptamine receptor 1B (Homo sapiens) (UniProt P28222); assay: 5HT1B(H) Eurofins SafetyScreen44 (BI); conditions: filed as antagonist, Compound concentration 10.0 uM
[3] = target: Cannabinoid receptor 1 (Homo sapiens) (UniProt P21554); assay: CB1(HU)_AGON Eurofins SafetyScreen44 (BI); conditions: filed as agonist; Compound concentration 10.0 uM
Chain of Cannabinoid receptor 1 (Homo sapiens) (P21554 whole entry): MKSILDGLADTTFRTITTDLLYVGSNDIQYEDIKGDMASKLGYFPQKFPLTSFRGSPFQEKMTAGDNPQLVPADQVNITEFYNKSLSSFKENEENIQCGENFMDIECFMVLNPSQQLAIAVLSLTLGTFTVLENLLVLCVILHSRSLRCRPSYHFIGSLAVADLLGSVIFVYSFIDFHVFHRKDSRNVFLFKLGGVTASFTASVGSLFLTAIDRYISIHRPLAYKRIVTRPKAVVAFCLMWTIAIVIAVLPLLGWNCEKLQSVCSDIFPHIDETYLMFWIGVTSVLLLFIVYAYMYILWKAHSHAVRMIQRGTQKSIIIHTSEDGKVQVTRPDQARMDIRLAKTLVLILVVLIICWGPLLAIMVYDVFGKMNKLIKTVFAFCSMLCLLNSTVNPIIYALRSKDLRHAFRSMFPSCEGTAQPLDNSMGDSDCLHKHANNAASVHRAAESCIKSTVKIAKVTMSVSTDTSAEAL

[4] = target: Tyrosine-protein kinase Lck (Homo sapiens) (UniProt P06239); assay: LCK_CE Eurofins SafetyScreen44 (BI); conditions: Compound concentration 10.0 uM
Chain of Tyrosine-protein kinase Lck (Homo sapiens) (P06239 2-509 limits assumed): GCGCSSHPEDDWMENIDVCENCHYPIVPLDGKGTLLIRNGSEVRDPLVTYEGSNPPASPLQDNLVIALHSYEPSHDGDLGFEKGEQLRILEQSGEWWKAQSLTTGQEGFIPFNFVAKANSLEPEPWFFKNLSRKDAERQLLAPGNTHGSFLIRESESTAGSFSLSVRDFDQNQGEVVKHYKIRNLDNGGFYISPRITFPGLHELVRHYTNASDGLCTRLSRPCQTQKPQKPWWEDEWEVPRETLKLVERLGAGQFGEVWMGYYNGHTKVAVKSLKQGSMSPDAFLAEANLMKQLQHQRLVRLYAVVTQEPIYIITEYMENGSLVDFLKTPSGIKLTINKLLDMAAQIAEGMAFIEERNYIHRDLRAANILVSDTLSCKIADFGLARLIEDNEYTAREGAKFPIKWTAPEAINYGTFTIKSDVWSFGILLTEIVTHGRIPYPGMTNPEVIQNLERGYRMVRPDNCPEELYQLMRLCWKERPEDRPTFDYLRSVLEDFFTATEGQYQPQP

[5] = target: Histamine H2 receptor (Homo sapiens) (UniProt P25021); assay: H2/APT/HS Eurofins SafetyScreen44 (BI); conditions: filed as antagonist, Compound concentration 10.0 uM
[6] = target: Endothelin-1 receptor (Homo sapiens) (UniProt P25101); assay: ETA/H Eurofins SafetyScreen44 (BI); conditions: Compound concentration 10.0 uM
[7] = target: GABA-A receptor; anion channel (Rattus norvegicus) (UniProt O09028+P15431+P18506+P18508+P19969+P20236+P23574+P23576+P28471+P28473+P30191+P62813+P63079+P63138+Q91ZM7+Q9ES14); conditions: Compound concentration 10.0 uM
[8] = target: 5-hydroxytryptamine receptor 5A (Homo sapiens) (UniProt P47898); conditions: Compound concentration 10.0 uM
Chain of 5-hydroxytryptamine receptor 5A (Homo sapiens) (P47898 whole entry): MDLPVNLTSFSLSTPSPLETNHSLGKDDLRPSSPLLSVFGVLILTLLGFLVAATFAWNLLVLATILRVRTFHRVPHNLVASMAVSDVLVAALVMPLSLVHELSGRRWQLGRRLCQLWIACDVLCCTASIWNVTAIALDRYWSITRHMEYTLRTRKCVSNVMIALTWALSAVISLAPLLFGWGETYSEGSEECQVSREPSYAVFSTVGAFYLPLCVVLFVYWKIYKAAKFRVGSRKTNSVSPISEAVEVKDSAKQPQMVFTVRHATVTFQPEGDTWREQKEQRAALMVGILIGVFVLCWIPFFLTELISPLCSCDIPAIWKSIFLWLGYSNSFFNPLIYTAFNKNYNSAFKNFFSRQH

[9] = target: 5-hydroxytryptamine receptor 7 (Homo sapiens) (UniProt P34969); conditions: Compound concentration 10.0 uM
Chain of 5-hydroxytryptamine receptor 7 (Homo sapiens) (P34969 whole entry): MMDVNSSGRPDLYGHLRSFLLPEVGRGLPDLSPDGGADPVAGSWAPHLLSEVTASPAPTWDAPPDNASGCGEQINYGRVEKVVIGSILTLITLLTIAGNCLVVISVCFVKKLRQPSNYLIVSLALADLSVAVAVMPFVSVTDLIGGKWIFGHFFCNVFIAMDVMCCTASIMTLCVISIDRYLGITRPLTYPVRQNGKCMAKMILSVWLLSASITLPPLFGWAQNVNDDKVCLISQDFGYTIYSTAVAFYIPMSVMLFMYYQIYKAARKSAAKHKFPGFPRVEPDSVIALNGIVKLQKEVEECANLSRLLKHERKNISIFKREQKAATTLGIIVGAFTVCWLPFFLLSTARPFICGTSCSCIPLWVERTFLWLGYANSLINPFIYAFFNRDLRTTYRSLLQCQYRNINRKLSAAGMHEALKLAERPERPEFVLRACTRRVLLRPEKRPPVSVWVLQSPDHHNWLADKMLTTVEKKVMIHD

[10] = target: voltage-dependent K+ channel (stored as IKs; KCNQ1/KCNE1) (Rattus norvegicus, UniProt P15383+Q9Z0N7); assay: K+/VOLT/RA Eurofins SafetyScreen44 (BI); assay type: protein-complex assay; conditions: rat brain, probe [125I]alpha-dendrotoxin, compound concentration 10 uM, read-out: % Ctrl
[11] = target: Alpha-2C adrenergic receptor (Homo sapiens) (UniProt P18825); conditions: Compound concentration 10.0 uM
Chain of Alpha-2C adrenergic receptor (Homo sapiens) (P18825 whole entry): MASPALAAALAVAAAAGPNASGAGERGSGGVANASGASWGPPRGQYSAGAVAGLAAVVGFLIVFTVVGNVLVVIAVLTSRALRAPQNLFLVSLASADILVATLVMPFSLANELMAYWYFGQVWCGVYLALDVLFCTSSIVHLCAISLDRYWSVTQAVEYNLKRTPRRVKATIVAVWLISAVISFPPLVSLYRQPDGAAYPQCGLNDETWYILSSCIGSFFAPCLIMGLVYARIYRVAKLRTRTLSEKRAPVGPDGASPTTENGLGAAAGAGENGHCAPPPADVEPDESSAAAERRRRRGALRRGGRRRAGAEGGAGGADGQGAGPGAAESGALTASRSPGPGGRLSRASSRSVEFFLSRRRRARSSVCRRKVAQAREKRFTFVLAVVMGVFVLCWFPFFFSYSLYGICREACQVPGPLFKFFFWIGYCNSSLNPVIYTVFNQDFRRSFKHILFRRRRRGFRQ

[12] = target: Muscarinic acetylcholine receptor M4 (Homo sapiens) (UniProt P08173); conditions: Compound concentration 10.0 uM
Chain of Muscarinic acetylcholine receptor M4 (Homo sapiens) (P08173 whole entry): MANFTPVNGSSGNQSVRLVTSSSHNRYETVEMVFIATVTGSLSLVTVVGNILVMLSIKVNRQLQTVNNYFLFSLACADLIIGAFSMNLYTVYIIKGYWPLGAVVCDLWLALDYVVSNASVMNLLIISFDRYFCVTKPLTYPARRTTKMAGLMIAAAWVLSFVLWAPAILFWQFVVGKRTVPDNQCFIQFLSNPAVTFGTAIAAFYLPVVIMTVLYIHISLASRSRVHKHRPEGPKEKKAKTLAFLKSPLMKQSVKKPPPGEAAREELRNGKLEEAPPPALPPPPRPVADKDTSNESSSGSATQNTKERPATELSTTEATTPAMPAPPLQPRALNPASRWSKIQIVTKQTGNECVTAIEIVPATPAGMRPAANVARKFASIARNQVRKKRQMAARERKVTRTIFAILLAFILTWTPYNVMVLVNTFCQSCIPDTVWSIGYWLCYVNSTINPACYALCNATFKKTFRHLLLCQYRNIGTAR

[13] = target: T1, 5-hydroxytryptamine receptor 1A (Homo sapiens); conditions: Compound concentration 10.0 uM
[14] = target: D(2) dopamine receptor (Homo sapiens) (UniProt P14416); conditions: Compound concentration 10.0 uM
[15] = target: 5-hydroxytryptamine receptor 2A (Homo sapiens) (UniProt P28223); assay: 5HT2AH_AGON Eurofins SafetyScreen44 (BI); conditions: filed as agonist, Compound concentration 10.0 uM
Chain of 5-hydroxytryptamine receptor 2A (Homo sapiens) (P28223 whole entry): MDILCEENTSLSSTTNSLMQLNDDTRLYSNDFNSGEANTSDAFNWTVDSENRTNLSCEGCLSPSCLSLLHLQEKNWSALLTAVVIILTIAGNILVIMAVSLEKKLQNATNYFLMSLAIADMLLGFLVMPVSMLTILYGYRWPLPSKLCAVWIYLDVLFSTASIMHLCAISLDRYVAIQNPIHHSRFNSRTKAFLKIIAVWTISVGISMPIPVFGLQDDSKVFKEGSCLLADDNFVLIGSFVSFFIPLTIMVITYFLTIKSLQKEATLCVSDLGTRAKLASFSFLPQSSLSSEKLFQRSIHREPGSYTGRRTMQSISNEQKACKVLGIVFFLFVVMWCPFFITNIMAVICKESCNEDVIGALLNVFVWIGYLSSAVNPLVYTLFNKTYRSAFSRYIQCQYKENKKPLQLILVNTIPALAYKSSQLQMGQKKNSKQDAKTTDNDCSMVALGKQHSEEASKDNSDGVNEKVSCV

[16] = target: Sodium-dependent serotonin transporter (Homo sapiens) (UniProt P31645); conditions: Compound concentration 10.0 uM
Chain of Sodium-dependent serotonin transporter (Homo sapiens) (P31645 whole entry, looked up): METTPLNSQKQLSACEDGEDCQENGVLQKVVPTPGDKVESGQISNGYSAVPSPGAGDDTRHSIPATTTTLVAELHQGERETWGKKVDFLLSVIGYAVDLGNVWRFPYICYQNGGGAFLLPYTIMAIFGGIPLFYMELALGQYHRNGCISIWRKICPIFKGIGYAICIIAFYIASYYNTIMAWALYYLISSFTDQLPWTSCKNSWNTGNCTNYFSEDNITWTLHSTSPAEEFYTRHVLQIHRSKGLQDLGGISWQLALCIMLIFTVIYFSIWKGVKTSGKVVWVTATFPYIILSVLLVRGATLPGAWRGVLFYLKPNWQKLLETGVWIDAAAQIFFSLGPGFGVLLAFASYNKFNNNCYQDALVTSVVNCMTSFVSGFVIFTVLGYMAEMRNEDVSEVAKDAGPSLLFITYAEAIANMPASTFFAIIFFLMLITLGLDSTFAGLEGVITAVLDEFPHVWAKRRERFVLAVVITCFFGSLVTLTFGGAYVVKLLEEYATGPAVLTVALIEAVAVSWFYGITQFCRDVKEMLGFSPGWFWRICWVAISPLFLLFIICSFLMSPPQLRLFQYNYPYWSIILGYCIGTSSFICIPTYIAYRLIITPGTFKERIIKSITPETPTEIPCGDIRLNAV

[17] = target: Histamine H1 receptor (Homo sapiens) (UniProt P35367); assay: H1/PYRIL/HS Eurofins SafetyScreen44 (BI); conditions: Compound concentration 10.0 uM
[18] = target: Histamine H4 receptor (Homo sapiens) (UniProt Q9H3N8); conditions: Compound concentration 10.0 uM
[19] = target: Kappa-type opioid receptor (Homo sapiens) (UniProt P41145); assay: KAPPA(KOP)_HU Eurofins SafetyScreen44 (BI); conditions: Compound concentration 10.0 uM
[20] = target: L-type Ca2+ channel (dihydropyridine site), Cav1.2 alpha-1C (Rattus norvegicus, UniProt P22002); assay: CA+/DHPSI/R Eurofins SafetyScreen44 (BI); conditions: rat brain, probe [3H](+)PN200-110, compound concentration 10 uM, read-out: % Ctrl
[21] = target: Sodium-dependent serotonin transporter (Homo sapiens) (UniProt P31645); assay: SLC6A4/H Eurofins SafetyScreen44 (BI); conditions: filed as antagonist, Compound concentration 10.0 uM
[22] = target: 5-hydroxytryptamine receptor 2A (Homo sapiens) (UniProt P28223); conditions: Compound concentration 10.0 uM
[23] = target: voltage-gated Na+ channel (site 2) (Rattus norvegicus, UniProt F1LQQ7+O08562+O88420+O88457+P04774+P04775+P08104+P15389+P15390+Q62968); assay: NA+/SITE2/R Eurofins SafetyScreen44 (BI); assay type: protein assay; conditions: rat brain, probe [3H]batrachotoxinin, compound concentration 10 uM, read-out: % Ctrl
[24] = target: Sigma non-opioid intracellular receptor 1 (Homo sapiens) (UniProt Q99720); conditions: Compound concentration 10.0 uM
Chain of Sigma non-opioid intracellular receptor 1 (Homo sapiens) (Q99720 whole entry): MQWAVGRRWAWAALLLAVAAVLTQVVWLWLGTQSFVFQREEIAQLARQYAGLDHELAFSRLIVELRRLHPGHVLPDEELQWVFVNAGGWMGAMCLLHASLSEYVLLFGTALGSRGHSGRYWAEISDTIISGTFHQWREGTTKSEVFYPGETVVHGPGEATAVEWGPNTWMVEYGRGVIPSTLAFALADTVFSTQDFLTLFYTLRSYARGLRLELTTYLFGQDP

[25] = target: Sodium-dependent dopamine transporter (Homo sapiens) (UniProt Q01959); conditions: Compound concentration 10.0 uM
Chain of Sodium-dependent dopamine transporter (Homo sapiens) (Q01959 whole entry): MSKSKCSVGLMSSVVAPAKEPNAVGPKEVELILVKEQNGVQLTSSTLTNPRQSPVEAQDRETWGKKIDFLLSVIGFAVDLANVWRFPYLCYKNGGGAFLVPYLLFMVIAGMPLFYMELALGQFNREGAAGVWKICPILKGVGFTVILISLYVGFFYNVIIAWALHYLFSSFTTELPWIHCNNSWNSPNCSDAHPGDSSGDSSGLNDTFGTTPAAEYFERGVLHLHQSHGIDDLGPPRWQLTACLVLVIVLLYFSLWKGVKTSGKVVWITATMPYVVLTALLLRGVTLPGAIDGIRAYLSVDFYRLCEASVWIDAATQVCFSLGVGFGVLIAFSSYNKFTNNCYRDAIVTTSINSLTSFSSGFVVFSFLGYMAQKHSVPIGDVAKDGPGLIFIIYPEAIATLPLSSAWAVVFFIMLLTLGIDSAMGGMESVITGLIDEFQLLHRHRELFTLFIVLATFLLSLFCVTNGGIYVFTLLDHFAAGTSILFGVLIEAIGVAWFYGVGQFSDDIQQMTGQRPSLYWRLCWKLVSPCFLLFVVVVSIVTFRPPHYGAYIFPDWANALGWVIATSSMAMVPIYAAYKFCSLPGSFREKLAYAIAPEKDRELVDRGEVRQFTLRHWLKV

[26] = target: Beta-2 adrenergic receptor (Homo sapiens) (UniProt P07550); conditions: Compound concentration 10.0 uM
[27] = target: Sigma intracellular receptor 2 (Homo sapiens) (UniProt Q5BJF2); conditions: Compound concentration 10.0 uM
Chain of Sigma intracellular receptor 2 (Homo sapiens) (Q5BJF2 whole entry): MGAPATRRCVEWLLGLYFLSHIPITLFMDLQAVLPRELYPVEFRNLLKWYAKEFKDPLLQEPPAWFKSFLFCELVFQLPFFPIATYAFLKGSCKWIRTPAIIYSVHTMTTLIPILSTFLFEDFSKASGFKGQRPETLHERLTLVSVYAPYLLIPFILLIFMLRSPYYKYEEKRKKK

[28] = target: hERG (KCNH2) (Homo sapiens, UniProt Q12809); assay: HERG_DOFETILIDE Eurofins SafetyScreen44 (BI); conditions: probe [3H]dofetilide, compound concentration 10 uM, read-out: % Ctrl

inhibition [7]	inhibition [8]	inhibition [9]	inhibition [11]	inhibition [12]	inhibition [16]	inhibition [18]	inhibition [22]	Compound	residual activity [1]	residual activity [2]	residual activity [3]	residual activity [4]	residual activity [5]	residual activity [6]	activity at 10 µM [10]	residual activity [15]	residual activity [17]	residual activity [19]	activity at 10 µM [20]	residual activity [21]	other results
27.6%	4.72%	5.8%	1.31%	-2.34%	-3.65%	3.99%	0.32%	CCn1c(=O)c(C)cn(Cc2nnc(-c3ccc(F)c(O)c3F)s2)c1=O	101%	93%	101%	91%	105%	97%	103% (not active)	84%	84%	94%	84% (not active)	106%	inhibition [13]: 29.3%; inhibition [14]: -2.66%; activity at 10 µM [23]: 73% (not active); inhibition [24]: 17.2%; inhibition [25]: 24.9%
19.9%	8.13%	-1.29%	2.05%	0.65%	-7.45%	-9.96%	3.82%	CCn1c(=O)c(C)cn(Cc2nnc(-c3ccc(F)c(OC)c3F)s2)c1=O	94%	103%	104%	110%	107%	104%	104% (not active)	101%	100%	110%	93% (not active)	97%	inhibition [26]: 6.43%; inhibition [27]: -5.43%; activity at 10 µM [28]: 100% (not active); activity at 10 µM [23]: 88% (not active); inhibition [24]: 16.4%; inhibition [25]: 12.4%
